Data: ChEMBL document CHEMBL5260857, “Identification of specific carbonic anhydrase inhibitors via in situ click chemistry, phage-display and synthetic peptide libraries: comparison of the methods and structural study” (RSC Med Chem, 2023)
Where a SMILES comes first, the peptide text is derived from it. The star is where a group is joined. X2 = NS(=O)(=O)c1ccc(CCNC(=O)Cn2cc(COC(=O)*)nn2)cc1; X1 = NS(=O)(=O)c1ccc(CO/N=C/C(=O)*)cc1

target: Carbonic anhydrase 9 (Homo sapiens, UniProt Q16790); assay: Inhibition of human carbonic anhydrase 9 assessed as Ki by stopped-flow carbon dioxide hydration assay

Q: Which Ki does the source give for C#Cc1ccc(S(N)(=O)=O)cc1 here?
A: 150 nM

Q: Which Ki does the source give for CC(C)C[C@H](NC(=O)[C@H](CO)NC(=O)/C=N/OCc1ccc(S(N)(=O)=O)cc1)C(=O)N1CCC[C@H]1C(N)=O here?
A: 2800 nM

Q: NC(=O)[C@H](CO)NC(=O)/C=N/OCc1ccc(S(N)(=O)=O)cc1 was tested. Which Ki did it give?
A: 1800 nM

Q: [N-]=[N+]=NCC(=O)NCCc1ccc(S(N)(=O)=O)cc1 was tested. Which Ki did it give?
A: 1200 nM

Q: For CC(C)C[C@H](NC(=O)[C@H](CO)NC(=O)/C=N/OCc1ccc(S(N)(=O)=O)cc1)C(N)=O, which Ki is on record?
A: 2500 nM

Q: CC(C)C[C@@H](C(N)=O)n1cc(-c2ccc(S(N)(=O)=O)cc2)nn1 was tested. Which Ki did it give?
A: 11 nM

Q: How did the Ki turn out when NOCc1ccc(S(N)(=O)=O)cc1 was run?
A: 844 nM

Q: For NC(=O)[C@H](Cc1ccc(O)cc1)NC(=O)[C@H](Cc1ccc(O)cc1)NC(=O)[C@H](Cc1ccccc1)NC(=O)[C@H](Cc1c[nH]c2ccccc12)NC(=O)[C@H](Cc1ccccc1)NC(=O)[C@H](Cc1ccccc1)NC(=O)[C@@H](N)CCCCNC(=O)OCc1cn(CC(=O)NCCc2ccc(S(N)(=O)=O)cc2)nn1 (H-K(X2)FFWFYY-NH2), which Ki is on record?
A: 104 nM

Q: How did the Ki turn out when CC(C)C[C@H](NC(=O)[C@H](CCC(N)=O)NC(=O)[C@H](Cc1ccc(O)cc1)NC(=O)[C@H](Cc1ccccc1)NC(=O)[C@@H](N)CCCCNC(=O)OCc1cn(CC(=O)NCCc2ccc(S(N)(=O)=O)cc2)nn1)C(=O)N[C@@H](Cc1ccc(O)cc1)C(=O)N[C@@H](Cc1ccccc1)C(N)=O (H-K(X2)FYQLYF-NH2) was run?
A: 69 nM

Q: How did the Ki turn out when C[C@H](NC(=O)[C@H](Cc1cnc[nH]1)NC(=O)[C@H](C)NC(=O)[C@H](CCCCN)NC(=O)[C@H](Cc1ccc(O)cc1)NC(=O)[C@@H]1CCCN1C(=O)[C@H](Cc1cnc[nH]1)NC(=O)/C=N/OCc1ccc(S(N)(=O)=O)cc1)C(=O)N[C@@H](Cc1cnc[nH]1)C(N)=O (X1-HPYKAHAH-NH2) was run?
A: 358 nM

Q: Which Ki does the source give for CC(C)C[C@H](NC(=O)[C@H](CO)NC(=O)/C=N/OCc1ccc(S(N)(=O)=O)cc1)C(=O)N1CCC[C@H]1C(=O)N[C@@H](Cc1ccccc1)C(N)=O (X1-SLPF-NH2) here?
A: 936 nM

Q: For CC(C)C[C@H](NC(=O)[C@H](CO)NC(=O)/C=N/OCc1ccc(S(N)(=O)=O)cc1)C(=O)N1CCC[C@H]1C(=O)N[C@@H](Cc1ccccc1)C(=O)N[C@H](C(=O)N[C@H](C(=O)N[C@@H](Cc1ccc(O)cc1)C(=O)N[C@@H](CC(N)=O)C(N)=O)C(C)C)[C@@H](C)O (X1-SLPFTVYN-NH2), which Ki is on record?
A: 1370 nM
